Test results as given in ChEMBL document CHEMBL1201862, “PubChem BioAssay data set” (2004).
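Where inhibition never reached the appropriate level, the endpoint shown equals the highest concentration tested. Otherwise, values were interpolated linearly from a five-concentration, 48-hour dose response in 96-well plates. Abbreviation: GI50, concentration required for 50% inhibition of growth.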 Calls of active or inactive are those of the source. Cut-off read from the data, not from the text of the source: active = GI50 up to about 1.1 µM and inactive = higher.

Assays:
Assay in all cases: NCI anticancer screen, dose series, 48 h
CCRF-CEM = test system: CCRF-CEM
DU-145 = test system: DU-145
OVCAR-4 = test system: OVCAR-4
HCT-116 = test system: HCT-116
Malme-3M = test system: Malme-3M
BT-549 = test system: BT-549
SW-620 = test system: SW-620
U-251 = test system: U-251
OVCAR-5 = test system: OVCAR-5
NCI/ADR-RES = test system: NCI/ADR-RES
SK-MEL-28 = test system: SK-MEL-28
RXF 393 = test system: RXF 393
SK-MEL-5 = test system: SK-MEL-5
RPMI-8226 = test system: RPMI-8226
786-0 = test system: 786-0
M14 = test system: M14
T47D = test system: T47D
SK-OV-3 = test system: SK-OV-3
Hs-578T = test system: Hs-578T
UACC-62 = test system: UACC-62
NCI-H226 = test system: NCI-H226
PC-3 = test system: PC-3
SNB-19 = test system: SNB-19
KM12 = test system: KM12
COLO 205 = test system: COLO 205
NCI-H460 = test system: NCI-H460
UACC-257 = test system: UACC-257
HCC 2998 = test system: HCC 2998
TK-10 = test system: TK-10
MCF7 = test system: MCF7
SN12C = test system: SN12C
MDA-MB-435 = test system: MDA-MB-435
HOP-62 = test system: HOP-62
OVCAR-3 = test system: OVCAR-3
SF-295 = test system: SF-295
NCI-H522 = test system: NCI-H522
IGROV-1 = test system: IGROV-1
SR = test system: SR
SF-539 = test system: SF-539
MDA-N = test system: MDA-N
MDA-MB-231 = test system: MDA-MB-231
K562 = test system: K562
HL-60 = test system: HL-60
HT-29 = test system: HT-29
SNB-75 = test system: SNB-75
OVCAR-8 = test system: OVCAR-8
A549 = test system: A549
LOX IMVI = test system: LOX IMVI
NCI-H23 = test system: NCI-H23
HCT-15 = test system: HCT-15
MOLT-4 = test system: MOLT-4
CAKI-1 = test system: CAKI-1
SK-MEL-2 = test system: SK-MEL-2
UO-31 = test system: UO-31

For Cc1ccc(S(=O)(=O)N/N=C2\C3CC4CC(C3)C2C4)cc1 (centres undefined), the GI50 (CCRF-CEM) was > 100 µM (inactive), the GI50 (DU-145) was > 10 µM (inactive) and the GI50 (OVCAR-4) was > 100 µM (inactive). For the same molecule, the GI50 (HCT-116) was > 10 µM (inactive), the GI50 (Malme-3M) was > 100 µM (inactive) and the GI50 (BT-549) was > 100 µM (inactive). The GI50 (SW-620) was > 100 µM (inactive), the GI50 (U-251) was > 100 µM (inactive) and the GI50 (OVCAR-5) was > 100 µM (inactive). For the same molecule, the GI50 (NCI/ADR-RES) was > 100 µM (inactive), the GI50 (SK-MEL-28) was > 100 µM (inactive) and the GI50 (RXF 393) was > 100 µM (inactive). The GI50 (SK-MEL-5) was > 100 µM (inactive), the GI50 (RPMI-8226) was > 100 µM (inactive) and the GI50 (786-0) was > 100 µM (inactive). For the same molecule, the GI50 (M14) was > 100 µM (inactive), the GI50 (T47D) was > 100 µM (inactive) and the GI50 (SK-OV-3) was > 100 µM (inactive). For the same molecule, the GI50 (Hs-578T) was > 100 µM (inactive), the GI50 (UACC-62) was > 100 µM (inactive) and the GI50 (NCI-H226) was > 100 µM (inactive). For the same molecule, the GI50 (PC-3) was > 100 µM (inactive), the GI50 (SNB-19) was > 100 µM (inactive) and the GI50 (KM12) was > 100 µM (inactive). The GI50 (COLO 205) was > 100 µM (inactive), the GI50 (NCI-H460) was > 100 µM (inactive) and the GI50 (UACC-257) was > 100 µM (inactive). The GI50 (HCC 2998) was > 100 µM (inactive), the GI50 (TK-10) was > 100 µM (inactive) and the GI50 (MCF7) was > 100 µM (inactive). For the same molecule, the GI50 (SN12C) was > 100 µM (inactive), the GI50 (MDA-MB-435) was > 100 µM (inactive) and the GI50 (HOP-62) was > 100 µM (inactive). For the same molecule, the GI50 (OVCAR-3) was > 100 µM (inactive), the GI50 (SF-295) was > 100 µM (inactive) and the GI50 (NCI-H522) was > 100 µM (inactive). For the same molecule, the GI50 (IGROV-1) was > 100 µM (inactive), the GI50 (SR) was > 100 µM (inactive) and the GI50 (SF-539) was > 100 µM (inactive). The GI50 (MDA-N) was > 100 µM (inactive), the GI50 (MDA-MB-231) was > 100 µM (inactive) and the GI50 (K562) was > 100 µM (inactive). For the same molecule, the GI50 (HL-60) was > 100 µM (inactive), the GI50 (HT-29) was > 100 µM (inactive) and the GI50 (SNB-75) was > 100 µM (inactive). The GI50 (OVCAR-8) was > 100 µM (inactive), the GI50 (A549) was > 100 µM (inactive) and the GI50 (LOX IMVI) was > 100 µM (inactive). The GI50 (NCI-H23) was > 100 µM (inactive), the GI50 (HCT-15) was > 100 µM and the GI50 (MOLT-4) was > 100 µM (inactive). For the same molecule, the GI50 (CAKI-1) was > 100 µM (inactive), the GI50 (SK-MEL-2) was > 100 µM (inactive) and the GI50 (UO-31) was > 100 µM (inactive).
